# From patent US11590167B2, “Methods and compositions for use of therapeutic T cells in combination with kinase inhibitors” (Juno Therapeutics, Inc., priority 2016, dated 2023)
# What was measured:
# anti-CD19 CAR T cells [1] = assay: Cytolytic activity of anti-CD19 CAR T cells co-cultured with K562-CD19 target cells (IncuCyte); assay type: cell-based, human; conditions: E:T 2.5:1, four days, three healthy donors; ibrutinib 0.5-5000 nM; compound of Formula (II) 50 to 5000 nM
# Text: To generate CAR-expressing T cells, T cells were isolated by immunoaffinity-based enrichment from three healthy human donor subjects, and cells from each donor were activated and transduced with a viral vector encoding an anti-CD19 CAR. The CAR contained an anti-CD19 scFv, an Ig-derived spacer, a human CD28-derived transmembrane domain, a human 4-1BB-derived intracellular signaling domain and a human CD3 zeta-derived signaling domain. The nucleic acid construct encoding the CAR also included a truncated EGFR (tEGFR) sequence for use as a transduction marker, separated from the CAR sequence by a self-cleaving T2A sequence.
# CAR-expressing CD4+ and CD8+ cells were mixed 1:1 for each donor, individually, and the pooled cells for each donor assessed in vitro under various conditions.
# CAR T cells generated as described above were plated in triplicate on Poly-D-Lysine plates and then co-cultured with ibrutinib-resistant, CD19-expressing target cells (K562 cells transduced to express CD19, K562-CD19) at an effector to target (E:T) ratio of 2.5:1. The targets cells were labeled with NucLight Red (NLR) to permit tracking of target cells by microscopy. […] Cytolytic activity was assessed by measuring the loss of viable target cells over a period of four days, as determined by red fluorescent signal (using the IncuCyte® Live Cell Analysis System, Essen Bioscience).
# anti-CD19 CAR T cells [2] = assay: TH1 phenotype of anti-CD19 CAR T cells in serial restimulation assay (flow cytometry); assay type: cell-based, human; conditions: 18-day serial stimulation, three donors; 500 nM ibrutinib (P<0.01); compound of Formula (II) treatment
# Procedure: A serial restimulation assay was performed as described above and cells were harvested at various times and analyzed by flow cytometry to assess percentage of TH1-phenotype (assessed as CD4+CXCR3+CRTH2-) T cells or TH2-phenotype (assessed as CD4+CXCR3-CRTH2+).
# CAR T cells = assay: Activation and memory markers of CAR T cells from the serial stimulation assay (flow cytometry); assay type: cell-based, human; conditions: days 0, 11, 18 and 21 of serial stimulation
# RLK/TXK = target: T1, RLK/TXK (Homo sapiens, UniProt P42681); conditions: literature value given as embodiment; read-out: IC50 value, inhibitory activity against RLK/TXK; cited from earlier work
# T1 sequence (P42681 1-527): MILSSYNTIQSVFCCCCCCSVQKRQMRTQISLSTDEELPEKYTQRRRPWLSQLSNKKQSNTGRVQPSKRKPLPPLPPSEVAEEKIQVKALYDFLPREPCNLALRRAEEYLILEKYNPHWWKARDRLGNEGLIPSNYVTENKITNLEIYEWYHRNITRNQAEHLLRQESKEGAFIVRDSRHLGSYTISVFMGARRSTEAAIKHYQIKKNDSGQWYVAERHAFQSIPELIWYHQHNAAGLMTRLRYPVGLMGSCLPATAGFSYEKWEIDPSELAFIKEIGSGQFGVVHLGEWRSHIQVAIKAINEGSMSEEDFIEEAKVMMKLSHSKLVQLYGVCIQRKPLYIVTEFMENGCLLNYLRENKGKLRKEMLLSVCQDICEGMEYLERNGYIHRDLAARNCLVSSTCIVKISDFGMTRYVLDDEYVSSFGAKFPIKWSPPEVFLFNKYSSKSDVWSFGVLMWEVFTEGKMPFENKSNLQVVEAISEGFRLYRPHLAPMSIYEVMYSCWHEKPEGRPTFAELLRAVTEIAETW
# [3] = observed Cmax quoted for dosage range; cited from earlier work
smiles,measurement,setting,value
CC#CC(=O)N1CCC[C@H]1c1nc(-c2ccc(C(=O)Nc3ccccn3)cc2)c2c(N)nccn12 [compound of Formula (II)],"cytolytic function of anti-CD19 CAR T cells against K562-CD19 target cells, normalized to untreated control",anti-CD19 CAR T cells [1],no negative impact on cytolytic function
same,percentage of TH1 cells,anti-CD19 CAR T cells [2],no significant effects were observed
same,"additional CAR T activation or memory markers (CD25, CD38, CD39, CD45RO, CD62L, CD69, CD107a, PD-1)",CAR T cells,No significant effects
same,IC50,RLK/TXK,~368 nM
same,Cmax,[3],1800 nM
